Columns and labels:
Format in all cases: cell-based
[1] = molecular target: T1, BRM (Homo sapiens, UniProt P51531); experiment: Immunofluorescence assay for BRM degradation in SW1573 cells; parameters: treated overnight at 4° C. with either BRM primary antibody (Cell signaling Cat #11966) or BRG primary antibody; endogenous in cells; host or cells: SW1573; conditions: 20 hours incubation; for DC50: immunofluorescence mean nuclear signal, read-out: BRM IF Degradation IC50; for BRM IF Degradation Sinf (%): normalized to a known degrader control
Method in brief: (§1)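 SW1573 cells treated with compound for 20 h, then fixed, permeabilized and immunostained for BRM or BRG1 with Hoechst nuclear counterstain. Mean nuclear intensity per cell quantified by high-content imaging; data normalized to a reference degrader control, with floating-maximum curve fits giving IC50 and Dmax.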

[2] = molecular target: T1, BRM; experiment: HiBIT nanoluciferase complementation screen for BRM degraders; conditions: 18 hours, BRM-HiBIT KI Hela cells, luminescence normalized: DMSO only = 0%, no cells = −100%; for Median HiBiT activity 1 μM: compound 1 μM; for Median HiBiT activity 10 μM: compound 10 μM
Text: Example B-1: HiBIT Nanoluciferase Complementation Screen for BRM Degraders
To assess BRM degradation, compounds were screened for their effect of BRM levels using the HiBIT nanoluciferase complementation strategy developed at Promega. In brief, a HELA cell line that was genetically modified via CRISPR/CAS9 was used to fuse the HiBIT sequence at the 3′ end of BRM (BRM-HiBIT KI Hela). BRM protein levels were then detected using the Nano-Glo HiBIT lytic detection reagent (Promega).
The screened compounds were plated into a white 384-well plate at 10 μM and 1 μM in 25 nL DMSO using an Echo dispenser (Labcyte). BRM-HiBIT KI Hela cells were seeded in the compound plate at 5000 cell per well at 25 μl in DMEM growth media (containing 10% FBS, 1% Glutamax (GIBCO cat #31053-028), lx Penicillin-Streptomycin (ROCHE, cat #1107444001), 4.5 g/L D-Glucose, and no phenol red). After incubation with compounds for 18 hours at 37° C., cell viability was assessed by the addition of 5 μl Cell Titer-Fluor reagent (Promega). After 30 s of mixing on an orbital shaker, and 30 minutes incubation at 37° C., fluorescence was measured with an INFINITE F500 (Tecan) (380-400 nm excitation, 505 nm emission). Next, to assess BRM HiBIT levels, 30 μl of Nano-Glo HiBIT lytic detection reagent (Promega) containing 1:50 Nano-Glo HiBIT lytic substrate and 1:100 LgBIT protein per ml of lytic buffer was added. After shaking on an orbital shaker at 350 rpm for 10 minutes, luminescence was measured on the INFINITE F500 (Tecan). To assess compound effects, luminescence signal was normalized with the mean of wells treated with DMSO only set to 0% and the mean of wells containing no cells set to −100%. Note that, in Table 4, the “Compound Number” corresponds to that used in Table 1.

[3] = molecular target: T2, BRG1 (Homo sapiens, UniProt P51532); experiment: Immunofluorescence assay for BRG1 degradation in SW1573 cells; conditions: 20 hours incubation; for DC50: immunofluorescence mean nuclear signal, read-out: BRG1 IF Degradation IC50; for Dmax: SW1573, 20 h, normalized to a known degrader control, read-out: BRG1 IF Degradation Sinf (%)
T2 construct: either BRM primary antibody (Cell signaling Cat #11966) or BRG primary antibody (Abcam, ab 110641); endogenous in cells; host or cells: SW1573
Method in brief: as §1

T1 sequence (P51531 whole entry): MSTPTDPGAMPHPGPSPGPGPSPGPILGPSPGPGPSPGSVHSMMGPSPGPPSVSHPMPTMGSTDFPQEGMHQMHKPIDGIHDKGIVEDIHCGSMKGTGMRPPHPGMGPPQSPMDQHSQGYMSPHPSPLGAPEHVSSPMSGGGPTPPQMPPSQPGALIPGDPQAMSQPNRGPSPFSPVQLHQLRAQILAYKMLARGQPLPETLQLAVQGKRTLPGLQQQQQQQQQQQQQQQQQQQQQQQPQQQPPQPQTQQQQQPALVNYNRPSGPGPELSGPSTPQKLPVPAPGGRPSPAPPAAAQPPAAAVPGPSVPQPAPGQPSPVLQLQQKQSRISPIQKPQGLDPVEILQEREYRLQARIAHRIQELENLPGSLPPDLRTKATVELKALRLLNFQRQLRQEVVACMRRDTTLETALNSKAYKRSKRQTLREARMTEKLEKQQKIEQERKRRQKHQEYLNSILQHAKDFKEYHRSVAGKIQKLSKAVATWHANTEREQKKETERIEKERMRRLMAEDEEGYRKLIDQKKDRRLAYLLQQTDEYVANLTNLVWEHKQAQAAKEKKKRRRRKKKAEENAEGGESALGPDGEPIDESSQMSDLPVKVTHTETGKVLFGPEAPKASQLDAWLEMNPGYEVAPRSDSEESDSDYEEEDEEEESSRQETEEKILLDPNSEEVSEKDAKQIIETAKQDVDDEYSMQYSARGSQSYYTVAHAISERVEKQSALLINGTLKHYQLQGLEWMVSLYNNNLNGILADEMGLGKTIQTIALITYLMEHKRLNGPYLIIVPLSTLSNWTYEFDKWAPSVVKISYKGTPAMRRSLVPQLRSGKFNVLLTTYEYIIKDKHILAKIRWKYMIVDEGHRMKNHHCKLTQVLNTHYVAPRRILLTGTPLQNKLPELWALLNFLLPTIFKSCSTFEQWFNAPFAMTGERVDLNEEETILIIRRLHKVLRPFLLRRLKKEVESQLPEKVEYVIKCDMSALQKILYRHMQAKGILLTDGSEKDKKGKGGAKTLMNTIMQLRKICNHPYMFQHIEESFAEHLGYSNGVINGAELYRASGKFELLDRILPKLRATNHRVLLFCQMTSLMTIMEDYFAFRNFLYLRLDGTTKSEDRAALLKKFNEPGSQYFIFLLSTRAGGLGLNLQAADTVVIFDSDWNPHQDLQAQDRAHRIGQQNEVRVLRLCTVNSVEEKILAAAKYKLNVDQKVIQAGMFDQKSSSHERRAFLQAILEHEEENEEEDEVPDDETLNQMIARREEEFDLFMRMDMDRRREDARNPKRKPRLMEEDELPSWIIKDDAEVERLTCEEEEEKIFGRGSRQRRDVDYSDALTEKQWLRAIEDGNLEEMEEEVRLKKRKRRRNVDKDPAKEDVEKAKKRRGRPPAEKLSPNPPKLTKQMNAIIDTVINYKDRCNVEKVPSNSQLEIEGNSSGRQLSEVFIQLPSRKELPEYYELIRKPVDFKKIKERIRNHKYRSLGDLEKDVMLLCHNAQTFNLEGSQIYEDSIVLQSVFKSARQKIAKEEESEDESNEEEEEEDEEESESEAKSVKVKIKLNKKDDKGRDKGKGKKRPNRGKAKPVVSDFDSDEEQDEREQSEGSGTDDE
T2 sequence (P51532 whole entry): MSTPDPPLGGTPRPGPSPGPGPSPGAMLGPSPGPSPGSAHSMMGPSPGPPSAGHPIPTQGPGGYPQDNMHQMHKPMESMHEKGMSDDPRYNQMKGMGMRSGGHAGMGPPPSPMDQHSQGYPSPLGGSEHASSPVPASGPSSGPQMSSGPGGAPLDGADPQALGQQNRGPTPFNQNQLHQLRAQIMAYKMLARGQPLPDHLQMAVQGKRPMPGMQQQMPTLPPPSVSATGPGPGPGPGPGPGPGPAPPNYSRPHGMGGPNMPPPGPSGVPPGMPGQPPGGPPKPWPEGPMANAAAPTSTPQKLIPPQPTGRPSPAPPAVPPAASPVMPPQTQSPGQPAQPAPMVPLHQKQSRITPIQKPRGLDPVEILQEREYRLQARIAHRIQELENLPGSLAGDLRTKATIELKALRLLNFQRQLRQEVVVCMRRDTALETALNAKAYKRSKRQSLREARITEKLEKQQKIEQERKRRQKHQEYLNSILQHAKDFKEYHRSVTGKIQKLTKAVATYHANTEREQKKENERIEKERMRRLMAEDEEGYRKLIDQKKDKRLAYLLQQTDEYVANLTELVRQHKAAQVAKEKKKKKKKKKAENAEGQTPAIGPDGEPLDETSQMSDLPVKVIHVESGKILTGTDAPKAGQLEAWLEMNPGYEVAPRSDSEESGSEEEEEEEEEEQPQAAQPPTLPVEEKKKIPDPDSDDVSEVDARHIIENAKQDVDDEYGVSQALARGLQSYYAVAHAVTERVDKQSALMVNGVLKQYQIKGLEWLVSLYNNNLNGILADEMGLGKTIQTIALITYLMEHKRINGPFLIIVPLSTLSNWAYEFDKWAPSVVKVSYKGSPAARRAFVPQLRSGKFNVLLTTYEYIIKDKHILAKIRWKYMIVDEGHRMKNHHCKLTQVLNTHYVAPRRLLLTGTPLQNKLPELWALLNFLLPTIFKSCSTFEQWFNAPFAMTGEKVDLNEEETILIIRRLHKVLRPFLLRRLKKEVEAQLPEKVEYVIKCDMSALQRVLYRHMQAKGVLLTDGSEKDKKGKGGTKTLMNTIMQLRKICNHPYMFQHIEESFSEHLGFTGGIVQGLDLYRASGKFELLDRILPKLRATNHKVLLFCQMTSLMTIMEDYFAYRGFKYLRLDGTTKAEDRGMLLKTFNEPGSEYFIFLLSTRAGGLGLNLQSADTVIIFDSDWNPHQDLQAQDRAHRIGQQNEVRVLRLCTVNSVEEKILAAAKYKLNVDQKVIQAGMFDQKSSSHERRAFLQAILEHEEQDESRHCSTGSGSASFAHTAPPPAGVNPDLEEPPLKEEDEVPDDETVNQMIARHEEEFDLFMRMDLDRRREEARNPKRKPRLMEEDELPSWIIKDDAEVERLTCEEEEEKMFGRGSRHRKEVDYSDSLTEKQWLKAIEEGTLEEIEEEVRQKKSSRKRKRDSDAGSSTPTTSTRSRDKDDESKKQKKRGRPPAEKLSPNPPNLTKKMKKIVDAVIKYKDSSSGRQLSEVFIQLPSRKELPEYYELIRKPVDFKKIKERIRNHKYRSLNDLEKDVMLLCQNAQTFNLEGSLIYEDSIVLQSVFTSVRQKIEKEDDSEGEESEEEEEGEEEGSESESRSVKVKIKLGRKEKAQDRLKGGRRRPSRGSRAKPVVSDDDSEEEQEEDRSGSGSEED

Q: Which results are given for `Nc1nnc(-c2ccccc2O)cc1N1CC2CCC(C1)N2c1ccnc(C#CC2CCOCC2)c1` [Compound 22, 2-(6-amino-5-(8-(2-((tetrahydro-2H-pyran-4-yl)ethynyl)pyridin-4-yl)-3,8-diazabicyclo[3.2.1]octan-3-yl)pyridazin-3-yl)phenol]?
A: DC50 [1]: > 100 nM; Median HiBiT activity 1 μM [2]: −30.6701%; Median HiBiT activity 10 μM [2]: −33.6373%; DC50 [3]: > 100 nM; Dmax [3]: 0 to 30%

Q: How did the DC50 [1] turn out when `Nc1nnc(-c2ccccc2O)cc1N1CC2CCC(C1)N2c1ccnc(C#CCOC2CCCNC2)c1` (stereo not drawn) [Compound 12, 2-(6-amino-5-(8-(2-(3-(piperidin-3-yloxy)prop-1-yn-1-yl)pyridin-4-yl)-3,8-diazabicyclo[3.2.1]octan-3-yl)pyridazin-3-yl)phenol] was run?
A: 10 to 100 nM

Q: And the “BRM IF Degradation Sinf (%)” value [1]?
A: E (E indicates −30%-−70%)

Q: What about the “Median HiBiT activity 1 μM” value [2] of the same compound?
A: −45.7932%

Q: And the “Median HiBiT activity 10 μM” value [2]?
A: −34.0604%

Q: And the DC50 [3]?
A: 10 to 100 nM

Q: And the Dmax [3]?
A: 0 to 30%

Q: Which DC50 [1] does the source give for `Nc1nnc(-c2ccccc2O)cc1N1CC2CCC(C1)N2c1ccnc(C#CC2CCCNC2)c1` (stereo not drawn) [Compound 8, 2-(6-amino-5-(8-(2-(piperidin-3-ylethynyl)pyridin-4-yl)-3,8-diazabicyclo[3.2.1]octan-3-yl)pyridazin-3-yl)phenol] here?
A: 10 to 100 nM

Q: And the “BRM IF Degradation Sinf (%)” value [1]?
A: E (E indicates −30%-−70%)

Q: And the “Median HiBiT activity 1 μM” value [2]?
A: −51.6794%

Q: What about the “Median HiBiT activity 10 μM” value [2] of the same compound?
A: −23.8415%

Q: What about the DC50 [3] of the same compound?
A: > 100 nM

Q: With `Nc1nnc(-c2ccccc2O)cc1N1CC2CCC(C1)N2c1ccnc(C#CCOCCO)c1` [Compound 4, 2-(6-amino-5-(8-(2-(3-(2-hydroxyethoxy)prop-1-yn-1-yl)pyridin-4-yl)-3,8-diazabicyclo[3.2.1]octan-3-yl)pyridazin-3-yl)phenol] as the compound, how does the DC50 [1] read?
A: 10 to 100 nM

Q: What about the “BRM IF Degradation Sinf (%)” value [1] of the same compound?
A: E (E indicates −30%-−70%)

Q: What about the “Median HiBiT activity 1 μM” value [2] of the same compound?
A: −65.5436%

Q: What about the “Median HiBiT activity 10 μM” value [2] of the same compound?
A: −51.5968%

Q: What about the DC50 [3] of the same compound?
A: 10 to 100 nM

Q: What about the Dmax [3] of the same compound?
A: 0 to 30%

Q: How did the DC50 [1] turn out when `Nc1nnc(-c2ccccc2O)cc1N1CC2CCC(C1)N2c1ccnc(C#CCN2CCC(N)C2)c1` (stereo not drawn) [Compound 15, 2-(6-amino-5-(8-(2-(3-(3-aminopyrrolidin-1-yl)prop-1-yn-1-yl)pyridin-4-yl)-3,8-diazabicyclo[3.2.1]octan-3-yl)pyridazin-3-yl)phenol] was run?
A: > 100 nM

Q: And the “BRM IF Degradation Sinf (%)” value [1]?
A: E (E indicates −30%-−70%)

Q: And the “Median HiBiT activity 1 μM” value [2]?
A: −41.5313%

Q: What about the “Median HiBiT activity 10 μM” value [2] of the same compound?
A: −55.0083%

Q: And the DC50 [3]?
A: > 100 nM

Q: And the Dmax [3]?
A: 0 to 30%

Q: Which results are given for `Cn1cc(C#Cc2cc(N3C4CCC3CN(c3cc(-c5ccccc5O)nnc3N)C4)ccn2)cn1` [Compound 21, 2-(6-amino-5-(8-(2-((1-methyl-1H-pyrazol-4-yl)ethynyl)pyridin-4-yl)-3,8-diazabicyclo[3.2.1]octan-3-yl)pyridazin-3-yl)phenol]?
A: DC50 [1]: > 100 nM; Median HiBiT activity 1 μM [2]: −32.7297%; Median HiBiT activity 10 μM [2]: −42.1813%; DC50 [3]: 10 to 100 nM; Dmax [3]: 0 to 30%

Q: What does the source list for `Nc1nnc(-c2ccccc2O)cc1N1CC2CCC(C1)N2c1ccnc(C#CCCO)c1` [Compound 26, 2-(6-amino-5-(8-(2-(4-hydroxybut-1-yn-1-yl)pyridin-4-yl)-3,8-diazabicyclo[3.2.1]octan-3-yl)pyridazin-3-yl)phenol]?
A: DC50 [1]: > 100 nM; Median HiBiT activity 1 μM [2]: −25.9348%; Median HiBiT activity 10 μM [2]: −28.4202%; DC50 [3]: > 100 nM

Q: Which DC50 [1] does the source give for `Nc1nnc(-c2ccccc2O)cc1N1CC2CCC(C1)N2c1ccnc(C#CCN2CCS(=O)(=O)CC2)c1` [Compound 18, 4-(3-(4-(3-(3-amino-6-(2-hydroxyphenyl)pyridazin-4-yl)-3,8-diazabicyclo[3.2.1]octan-8-yl)pyridin-2-yl)prop-2-yn-1-yl)thiomorpholine1,1-dioxide] here?
A: > 100 nM

Q: What about the “BRM IF Degradation Sinf (%)” value [1] of the same compound?
A: E (E indicates −30%-−70%)

Q: What about the “Median HiBiT activity 1 μM” value [2] of the same compound?
A: −37.0807%

Q: What about the “Median HiBiT activity 10 μM” value [2] of the same compound?
A: −56.4043%

Q: And the DC50 [3]?
A: > 100 nM

Q: For `Nc1nnc(-c2ccccc2O)cc1N1CC2CCC(C1)N2c1ccnc(C#CCCN2CCNCC2)c1` [Compound 1, 2-(6-amino-5-(8-(2-(4-(piperazin-1-yl)but-1-yn-1-yl)pyridin-4-yl)-3,8-diazabicyclo[3.2.1]octan-3-yl)pyridazin-3-yl)phenol], which DC50 [1] is on record?
A: 10 to 100 nM

Q: And the “BRM IF Degradation Sinf (%)” value [1]?
A: F (F indicates −71%-−120%)

Q: What about the “Median HiBiT activity 1 μM” value [2] of the same compound?
A: −87.0122%

Q: What about the “Median HiBiT activity 10 μM” value [2] of the same compound?
A: −81.2914%

Q: And the DC50 [3]?
A: > 100 nM

Q: What about the Dmax [3] of the same compound?
A: 71 to 120%

Q: With `C[C@@H](N)C#Cc1cc(N2C3CCC2CN(c2cc(-c4ccccc4O)nnc2N)C3)ccn1` [Compound 23, 2-(6-amino-5-(8-(2-((R)-3-aminobut-1-yn-1-yl)pyridin-4-yl)-3,8-diazabicyclo[3.2.1]octan-3-yl)pyridazin-3-yl)phenol] as the compound, how does the DC50 [1] read?
A: < 10 nM

Q: What about the “BRM IF Degradation Sinf (%)” value [1] of the same compound?
A: E (E indicates −30%-−70%)

Q: And the “Median HiBiT activity 1 μM” value [2]?
A: −29.3818%

Q: What about the “Median HiBiT activity 10 μM” value [2] of the same compound?
A: −58.9213%

Q: And the DC50 [3]?
A: 10 to 100 nM

Q: And the Dmax [3]?
A: 30 to 70%

— patent publication US11993599B2, “Therapeutic compounds” (Genentech, Inc., priority 2021, dated 2024)
